Earlier results, collected in patent publication US20190367426A1, “LIQUID UREASE INHIBITOR FORMULATIONS” (YARA INTERNATIONAL ASA, priority 2017, published 2019).

System: rat

Structure (SMILES) | toxicity oral rat LD50 [mg/kg]
COCCOCCO [DEGMME, Diethylene glycol monomethyl ether] | 6450
CCCCOCCOCCO [DEGMBE, Diethylene glycol monobutyl ether] | 5660
